One data set concerns the target CYP2C9 (Homo sapiens, UniProt P11712). Kind of data set: Inhibitory activity of 20 uM SPP100 on 259 Pmoles of cDNA-derived CYP2C9 enzyme in microsome prepared from human lymphoblastoid cell line. The format is ADME, microsomes. Also noted: conc 20 uM, interact cpd conc 6 uM. The note with it: probe diclofenac.
A short description of data set [1]: % of radioactivity recovered as aliskiren in urine following oral administration of [14C] aliskiren hemifumarate at 100 mg.Kg-1 level in rat. To be noted: in vivo. The format is ADME, organism-based, Albino HAN:WIST.
The target of data set [2] is T1, CYP1A2 (Homo sapiens, UniProt P05177).
T1 sequence (P05177 whole entry): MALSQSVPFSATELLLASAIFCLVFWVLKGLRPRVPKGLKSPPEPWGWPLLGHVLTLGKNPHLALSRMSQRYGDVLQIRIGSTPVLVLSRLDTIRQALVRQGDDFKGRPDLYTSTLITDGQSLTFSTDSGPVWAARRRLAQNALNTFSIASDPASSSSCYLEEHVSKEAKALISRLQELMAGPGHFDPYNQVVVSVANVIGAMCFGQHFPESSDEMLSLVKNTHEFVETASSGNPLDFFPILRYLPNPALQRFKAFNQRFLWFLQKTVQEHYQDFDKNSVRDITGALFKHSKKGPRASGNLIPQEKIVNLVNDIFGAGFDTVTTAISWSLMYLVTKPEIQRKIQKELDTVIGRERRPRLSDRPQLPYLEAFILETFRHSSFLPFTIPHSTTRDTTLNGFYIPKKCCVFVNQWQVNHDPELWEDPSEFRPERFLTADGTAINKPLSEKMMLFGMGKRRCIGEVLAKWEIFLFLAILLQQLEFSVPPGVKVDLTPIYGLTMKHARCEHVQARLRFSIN
Kind of data set: Inhibitory activity of 20 uM SPP100 on 502 Pmoles of cDNA-derived CYP1A2 enzyme in microsome prepared from human lymphoblastoid cell line. The format is ADME, microsomes. Also on record: conc 20 uM, interact cpd conc 50 uM. To be noted: probe phenacetin.

The target in a further data set is CYP2C19 (Homo sapiens, UniProt P33261). Nature of the data set: Inhibitory activity of 200 uM SPP100 on 1156 Pmoles of cDNA-derived CYP2C19 enzyme in microsome prepared from human lymphoblastoid cell line. The format is ADME, microsomes. Also on record: conc 200 uM, interact cpd conc 50 uM. The note with it: probe (S)-mephenytoin (50 uM).
In data set [3] the target is T1, CYP1A2. Nature of the data set: Inhibitory activity of 20 uM SPP100 on 489 Pmoles of cDNA-derived CYP1A2 enzyme in microsome prepared from human lymphoblastoid cell line. The format is ADME, microsomes. Also on record: conc 20 uM, interact cpd conc 50 uM. To be noted: probe phenacetin.
A short description of data set [4]: AUC of SPP100 following single oral dose of [14C] aliskiren hemifumarate at 3 mg.Kg-1 level in marmoset. Type of data set: ADME, organism-based, Callithrix jacchus, Plasma. The note with it: in vivo.
Data set [5] in a line: Excretion of radioactivity (0-24h) in faeces following single intravenous dose of 10 mg.Kg-1 [14C] aliskiren hemifumarate in rat. The format is ADME, organism-based, Albino HAN:WIST, Feces. To be noted: in vivo.
Data set [6] is described as follows: AUC of [14C] aliskiren hemifumarate following single oral dose of [14C] aliskiren hemifumarate at 500 mg.Kg-1 level in mouse. Type of data set: ADME, organism-based, TgRasH2, Plasma. To be noted: in vivo.
The nature of data set [7]: Concentration of radioactivity in the brown fat following repeated oral administration of [14C] aliskiren hemifumarate at 100 mg.Kg-1 level studied at 2h after 10th dose in rat. Type of data set: ADME, organism-based, Albino HAN:WIST, Brown adipose tissue. The note with it: in vivo.
The target in a further data set is Cytochrome P450 3A4 (Homo sapiens, UniProt P08684). Nature of the data set: Activity of human recombinant CYP3A4 assessed as enzyme contribution (% total relative CL) towards [14C]SPP100 hemifumarate metabolism in human liver microsome. The format is ADME. To be noted: microsomes. For orientation: Microsomes from liver hold many membrane-bound enzymes, among them those of drug oxidation.

Data set [8] is described as follows: Concentration of radioactivity in the brown fat following repeated oral administration of [14C] aliskiren hemifumarate at 100 mg.Kg-1 level studied at 24h after 10th dose in rat. The format is ADME, organism-based, Albino HAN:WIST, Brown adipose tissue. The note with it: in vivo.
The nature of data set [9]: Total excretion (0-96h) of radioactivity in urine, faeces and cage wash following single intravenous dose of 10 mg.Kg-1 [14C] aliskiren hemifumarate in mouse. The format is ADME, organism-based, Urine/Feces. The note with it: rat, in vivo.
Data set [10] in a line: Concentration of radioactivity in the colon wall following repeated oral administration of [14C] aliskiren hemifumarate at 100 mg.Kg-1 level studied at 24h after 10th dose in rat. Type of data set: ADME, organism-based, Albino HAN:WIST. To be noted: in vivo.
The nature of data set [11]: Excretion (0-24h) of radioactivity in faeces following oral administration of [14C] aliskiren hemifumarate at 3 mg.Kg-1 level in marmoset. The format is ADME, organism-based, Callithrix jacchus, Feces. To be noted: in vivo.
Data set [12] can be described thus: Excretion (48h) of radioactivity in faeces following oral administration of [14C] aliskiren hemifumarate at 100 mg.Kg-1 level in rat. Type of data set: ADME, organism-based, Lister-Hooded, Feces. The note with it: in vivo.
A short description of data set [13]: Tmax (0-168h) of total radioactivity following single oral administration of [14C] aliskiren hemifumarate at 3 mg.Kg-1 level in marmoset. The format is ADME, organism-based, Callithrix jacchus, Plasma. To be noted: in vivo.
Data set [14] is described as follows: Excretion (24h) of radioactivity in faeces following oral administration of [14C] aliskiren hemifumarate at 100 mg.Kg-1 level in rat. To be noted: in vivo. The format is ADME, organism-based, Lister-Hooded, Feces.
Data set [15] can be described thus: AUC/dose (0-168h) of unlabeled aliskiren hemifumarate following single intravenous administration of aliskiren hemifumarate at 1 mg.Kg-1 level in marmoset. The note with it: in vivo. The format is ADME, organism-based, Callithrix jacchus, Plasma.
The nature of data set [16]: AUC infinity of aliskiren hemifumarate following 2 week oral dosing of aliskiren hemifumarate at 100 mg.Kg-1 level studied on day 1 in male Callithrix jacchus. Type of data set: ADME, organism-based. To be noted: marmoset, plasma, read-out: AUC infinity.
Data set [17] can be described thus: AUC (0-96 or 0-168h) of unlabeled aliskiren hemifumarate following single oral administration of aliskiren hemifumarate at 3 mg.Kg-1 level in marmoset. The format is ADME, organism-based, Callithrix jacchus. The note with it: plasma.
A short description of data set [18]: Tmax of aliskiren hemifumarate following 4 week oral dietary dosing of aliskiren hemifumarate at 1000 mg.Kg-1 level in female mouse. Type of data set: ADME, organism-based. The note with it: CB6F1-TGrasH2, mouse, in vivo.
The nature of data set [19]: Cmax/dose of aliskiren hemifumarate following 4 week oral dietary dosing of aliskiren hemifumarate at 1000 mg.Kg-1 level in female mouse. The format is ADME, organism-based, CB6F1-TGrasH2. The note with it: in vivo, 672 h.
Data set [20] is described as follows: AUC(0-24h) of aliskiren hemifumarate following 2 week oral dosing of aliskiren hemifumarate at 50 mg.Kg-1 level studied on day 14 in male Callithrix jacchus. The format is ADME, organism-based. To be noted: marmoset, plasma.
Data set [21] in a line: Cmax of aliskiren hemifumarate following 2 week oral dosing of aliskiren hemifumarate at 50 mg.Kg-1 level studied on day 1 in male Callithrix jacchus. The note with it: marmoset, plasma. Type of data set: ADME, organism-based.
A short description of data set [22]: Cmax (0-168h) of unlabeled aliskiren hemifumarate following single intravenous administration of aliskiren hemifumarate at 1 mg.Kg-1 level in marmoset. To be noted: plasma. Type of data set: ADME, organism-based, Callithrix jacchus.
Data set [23] is described as follows: Tmax of aliskiren hemifumarate following 4 week oral dietary dosing of aliskiren hemifumarate at 500 mg.Kg-1 level in female mouse. Type of data set: ADME, organism-based. To be noted: CB6F1-TGrasH2, mouse, in vivo.
The nature of data set [24]: Cmax of aliskiren hemifumarate following 2 week oral dosing of aliskiren hemifumarate at 100 mg.Kg-1 level studied on day 14 in female Callithrix jacchus. To be noted: marmoset, plasma. Type of data set: ADME, organism-based.
A short description of data set [25]: Effect of 4 week oral dietary dosing of aliskiren hemifumarate at 2000 mg.Kg-1 level on spermatogenesis in male mouse. Type of data set: toxicity, organism-based, CB6F1-TGrasH2, Testis. To be noted: in vivo, 672 h.
The nature of data set [26]: Effect of 2 week oral dosing of aliskiren hemifumarate at 50 mg.Kg-1 level on blood urea nitrogen level in male Callithrix jacchus. The format is toxicity, organism-based, Plasma. To be noted: marmoset, 336 h.
Data set [27] in a line: Cmax/dose (0-96h) of unlabeled aliskiren hemifumarate following oral administration of aliskiren hemifumarate at 100 mg.Kg-1 level in rat. Type of data set: ADME, organism-based, Albino HAN:WIST, Plasma. The note with it: in vivo.
Data set [28] can be described thus: Cmax of unlabeled aliskiren hemifumarate following single intravenous dose of aliskiren hemifumarate at 10 mg.Kg-1 level in mouse. Type of data set: ADME, organism-based. To be noted: TgRasH2, mouse, plasma.
The nature of data set [29]: AUC of aliskiren hemifumarate following 8 day once-daily dosing of SPP100B oral solution at 160 mg level studied on day 8 in men. The format is ADME, organism-based. To be noted: male, human, plasma.
The nature of data set [30]: Tmax of aliskiren hemifumarate following 8 day once-daily dosing of SPP100B oral solution at 80 mg level studied on day 8 in men. Type of data set: ADME, organism-based. To be noted: male, human, plasma.

This is an account of results in ChEMBL document CHEMBL3508693 (2016).

For orientation: inhibition means the share of the control response that was lost under treatment. The AUC is concentration integrated over time. The low end stands for less exposure, the high end for more exposure. The Tmax is the time from dosing to the highest level. The Cmax is the highest concentration seen after dosing.

CYP2C9, sequence (P11712 whole entry): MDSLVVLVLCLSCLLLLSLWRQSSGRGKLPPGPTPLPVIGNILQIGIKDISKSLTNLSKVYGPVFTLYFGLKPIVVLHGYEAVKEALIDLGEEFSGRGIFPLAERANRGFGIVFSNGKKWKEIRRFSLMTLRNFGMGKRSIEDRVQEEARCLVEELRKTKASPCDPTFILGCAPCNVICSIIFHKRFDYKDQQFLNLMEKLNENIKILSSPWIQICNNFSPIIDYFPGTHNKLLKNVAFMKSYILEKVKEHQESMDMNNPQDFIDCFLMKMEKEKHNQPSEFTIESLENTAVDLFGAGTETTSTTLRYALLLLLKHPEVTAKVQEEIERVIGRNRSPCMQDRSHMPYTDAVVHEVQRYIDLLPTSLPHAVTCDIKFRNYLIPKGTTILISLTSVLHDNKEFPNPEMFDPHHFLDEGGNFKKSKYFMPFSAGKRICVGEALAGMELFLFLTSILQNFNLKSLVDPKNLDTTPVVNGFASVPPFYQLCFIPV
Cytochrome P450 3A4, sequence (P08684 whole entry): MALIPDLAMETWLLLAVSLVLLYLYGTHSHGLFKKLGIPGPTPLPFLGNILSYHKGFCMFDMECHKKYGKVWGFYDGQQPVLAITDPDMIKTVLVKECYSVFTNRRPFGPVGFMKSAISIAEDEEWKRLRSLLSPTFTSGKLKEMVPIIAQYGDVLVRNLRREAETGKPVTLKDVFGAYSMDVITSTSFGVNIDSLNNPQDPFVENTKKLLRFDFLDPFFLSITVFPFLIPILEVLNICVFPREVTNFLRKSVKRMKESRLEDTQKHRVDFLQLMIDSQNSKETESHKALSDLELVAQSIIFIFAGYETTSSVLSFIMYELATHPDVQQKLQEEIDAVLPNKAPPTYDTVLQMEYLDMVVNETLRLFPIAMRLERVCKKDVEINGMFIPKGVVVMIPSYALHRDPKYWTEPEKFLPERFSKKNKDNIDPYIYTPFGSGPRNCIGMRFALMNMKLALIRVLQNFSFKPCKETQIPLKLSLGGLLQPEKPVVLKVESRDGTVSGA
CYP2C19, sequence (P33261 whole entry): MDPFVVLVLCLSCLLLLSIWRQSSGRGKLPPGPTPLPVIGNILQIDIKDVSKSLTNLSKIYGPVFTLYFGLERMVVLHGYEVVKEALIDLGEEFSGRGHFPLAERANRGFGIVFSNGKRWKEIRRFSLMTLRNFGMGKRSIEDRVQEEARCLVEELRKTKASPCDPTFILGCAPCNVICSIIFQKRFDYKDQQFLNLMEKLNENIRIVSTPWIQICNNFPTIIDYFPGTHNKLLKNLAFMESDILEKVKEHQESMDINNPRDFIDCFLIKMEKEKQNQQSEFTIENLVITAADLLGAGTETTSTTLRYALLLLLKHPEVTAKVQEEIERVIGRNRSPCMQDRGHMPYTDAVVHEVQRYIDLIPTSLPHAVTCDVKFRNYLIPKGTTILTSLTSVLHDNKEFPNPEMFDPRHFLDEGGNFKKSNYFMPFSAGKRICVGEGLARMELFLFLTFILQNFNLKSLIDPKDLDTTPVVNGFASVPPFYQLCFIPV

Consider `COCCCOc1cc(C[C@@H](C[C@H](N)[C@@H](O)C[C@H](C(=O)NCC(C)(C)C(N)=O)C(C)C)C(C)C)ccc1OC`, for which the values for the inhibition at 20 µM on CYP2C9, on CYP1A2 [2] and at CYP1A2 [3] were 0.9%, 2.5% and 5%, respectively. Further, in data set [1], the Compound recovery result is “<= 2%”. The compound further showed an inhibition at 200 µM on CYP2C19 of 3%. In data set [4], this compound had an area under the curve (AUC) of 0.868 µg·h/mL.
Regarding `COCCCOc1cc(C[C@@H](C[C@H](N)[C@@H](O)C[C@H](C(=O)NCC([14CH3])([14CH3])C(N)=O)C(C)C)C(C)C)ccc1OC.O=C(O)/C=C/C(=O)O`, the Radiolabel recovery in data set [5] is 55.7%; in [7], “OUTCOME = Detected”; in data set [8], “OUTCOME = Detected”; in [9], 96.2%; in data set [10] it was “OUTCOME = Observed, VALUE = Highest radioactivity concentration was observed”; in data set [11], 84%. The Radiolabel recovery in data set [12] was 95.25%; in data set [14] it was 86%. This compound yielded an AUC in data set [6] of 18.3 µM·h. The Activity at Cytochrome P450 3A4 is listed as 99.6%. For the same compound, in data set [13], the Tmax is given as 2 h.
In the case of `COCCCOc1cc(C[C@@H](C[C@H](N)[C@@H](O)C[C@H](C(=O)NCC(C)(C)C(N)=O)C(C)C)C(C)C)ccc1OC.COCCCOc1cc(C[C@@H](C[C@H](N)[C@@H](O)C[C@H](C(=O)NCC(C)(C)C(N)=O)C(C)C)C(C)C)ccc1OC.O=C(O)/C=C/C(=O)O` [ALISKIREN FUMARATE], the AUC normalised in [15] is on record as 49 (umol.h/L)/(mg/kg). Further, the AUC(0-inf) in [16] stood at 103 µg·h/mL. In data set [17], this compound had an AUC at 168 h of 4.55 µM·h. In addition, the figures for the Tmax in [18], in [23] and in data set [30] were 3 h, 0 h and 1.8 h, respectively. Moreover, the Cmax normalised is 0.167 (ng/mL)/(mg/kg/day) in data set [19] and 0.0027 (umol/L)/(mg/kg) in data set [27]. Moreover, in data set [20], the AUC at 24 h was 107 µg·h/mL. The Cmax stood at 6290 ng/mL in data set [21], 14.2 µM in data set [22], 10600 ng/mL in data set [24] and 19.8 µM in data set [28]. In addition, the Change in spermatogenesis entry in data set [25] is given as “OUTCOME = No abnormalities. No animals died during the study”. For the same compound, the BUN_CHANGE_BY in [26] came out at 105%. Also, the AUC at 192 h in [29] was 0.363 µg·h/mL.
